27 compounds from patent US10370343B2, “[6,6] Fused bicyclic HDAC8 inhibitors” (FORMA Therapeutics, Inc., priority 2015, dated 2019) can be followed below.

The assay has as its target T1, Full length human recombinant HDAC8 protein (Homo sapiens, UniProt Q9BY41).
T1 construct: Full length human recombinant HDAC8 protein was expressed in baculoviral system; made in house
T1 sequence (Q9BY41 1-377): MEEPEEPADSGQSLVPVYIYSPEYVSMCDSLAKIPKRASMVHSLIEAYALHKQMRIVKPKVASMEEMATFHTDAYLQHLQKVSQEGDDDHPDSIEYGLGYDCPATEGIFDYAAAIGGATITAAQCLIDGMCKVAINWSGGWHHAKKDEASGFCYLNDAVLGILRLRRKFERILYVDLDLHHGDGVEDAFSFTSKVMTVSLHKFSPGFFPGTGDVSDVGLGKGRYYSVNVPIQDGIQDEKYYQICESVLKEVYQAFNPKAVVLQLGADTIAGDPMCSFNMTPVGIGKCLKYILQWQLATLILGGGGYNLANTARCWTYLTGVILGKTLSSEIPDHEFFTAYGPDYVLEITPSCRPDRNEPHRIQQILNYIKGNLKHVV
The assay is described as follows: In vitro histone deacetylase assay: enzymatic HDAC8 electrophoretic mobility shift assay. It is filed as biochemical. As to conditions: electrophoretic mobility shift assay; enzyme 1 nM; 2 μM fluorescently labeled peptide substrate RHKK(Ac)-NH2; 25° C.; 12 concentrations; read-out: HDAC8 IC50. (In general: Mobility shift assays separate free from complexed probe on a gel.)

The term IC50 denotes the concentration at which inhibition is half-maximal. `O=C(NO)c1ccc2c(c1)N(Cc1cccc(-c3ccccc3)c1)C(=O)CO2` [Compound I-75, 4-([1,1′-biphenyl]-3-ylmethyl)-N-hydroxy-3-oxo-3,4-dihydro-2H-benzo[b][1,4]oxazine-6-carboxamide]: the IC50 was under 0.025 µM.

In the case of `CCCCCN1CCOc2ccc(C(=O)NO)cc21` [Compound I-78, N-hydroxy-4-pentyl-3,4-dihydro-2H-benzo[b][1,4]oxazine-6-carboxamide], the IC50 was in the range of 0.025 to 0.1 µM.

Turning to `O=C(NO)c1ccc2c(c1)N(Cc1ccc(C(F)(F)F)cc1)CCS2(=O)=O` [Compound I-79, N-hydroxy-4-(4-(trifluoromethyl)benzyl)-3,4-dihydro-2H-benzo[b][1,4]thiazine-6-carboxamide 1,1-dioxide], the IC50 is under 0.025 µM.

As to `COc1ccc(CN2CCS(=O)(=O)c3cc(C(=O)NO)ccc32)cc1` [Compound I-80, N-hydroxy-4-(4-methoxybenzyl)-3,4-dihydro-2H-benzo[b][1,4]thiazine-7-carboxamide-1,1-dioxide], the IC50 lay in the range of 0.1 to 1 µM.

Turning to `O=C(NO)c1ccc2c(c1)N(Cc1cccc(C(F)(F)F)c1)CCS2(=O)=O` [Compound I-81, N-hydroxy-4-(3-(trifluoromethyl)benzyl)-3,4-dihydro-2H-benzo[b][1,4]thiazine-6-carboxamide-1,1-dioxide], the IC50 is under 0.025 µM.

Take `CC1CN(Cc2ccccc2)c2cc(C(=O)NO)ccc2O1` (stereo not drawn) [Compound I-83, 4-benzyl-N-hydroxy-2-methyl-3,4-dihydro-2H-benzo[b][1,4]oxazine-6-carboxamide]: the IC50 fell in the range of 0.1 to 1 µM.

Turning to `COc1ccc(CN2CC(C)Oc3ccc(C(=O)NO)cc32)cc1` (stereo not drawn) [Compound I-84, N-hydroxy-4-(4-methoxybenzyl)-2-methyl-3,4-dihydro-2H-benzo[b][1,4]oxazine-6-carboxamide], the IC50 was in the range of 0.025 to 0.1 µM.

`CC1CN(Cc2ccc(S(C)(=O)=O)cc2)c2cc(C(=O)NO)ccc2O1` (stereo not drawn) [Compound I-85, N-hydroxy-2-methyl-4-(4-(methylsulfonyl)benzyl)-3,4-dihydro-2H-benzo[b][1,4]oxazine-6-carboxamide]: the IC50 lay in the range of 0.1 to 1 µM.

Turning to `O=C(NO)c1ccc2c(c1)N(S(=O)(=O)c1ccccc1)CCO2` [Compound I-86, N-hydroxy-4-(phenylsulfonyl)-3,4-dihydro-2H-benzo[b][1,4]oxazine-6-carboxamide], the IC50 was 0.1 to 1 µM.

With `COc1ccc(S(=O)(=O)N2CCOc3ccc(C(=O)NO)cc32)cc1` [Compound I-87, N-hydroxy-4-((4-methoxyphenyl)sulfonyl)-3,4-dihydro-2H-benzo[b][1,4]oxazine-6-carboxamide], the IC50 was in the range of 0.1 to 1 µM.

As to `O=C(NO)c1ccc2c(c1)N(Cc1ccc(S(=O)(=O)C(F)F)cc1)C(=O)CO2` [Compound I-88, 4-(4-((difluoromethyl)sulfonyl)benzyl)-N-hydroxy-3-oxo-3,4-dihydro-2H-benzo[b][1,4]oxazine-6-carboxamide], the IC50 was under 0.025 µM.

Consider `COc1ccc(CN2C(=O)COc3cc(C(=O)NO)ccc32)cc1` [Compound I-89, N-hydroxy-4-(4-methoxybenzyl)-3-oxo-3,4-dihydro-2H-benzo[b][1,4]oxazine-7-carboxamide], for which the IC50 was in the range of 0.1 to 1 µM.

In the case of `CS(=O)(=O)c1ccc(CN2C(=O)COc3cc(C(=O)NO)ccc32)cc1` [Compound I-90, N-hydroxy-4-(4-(methylsulfonyl)benzyl)-3-oxo-3,4-dihydro-2H-benzo[b][1,4]oxazine-7-carboxamide], the IC50 was in the range of 0.1 to 1 µM.

For the compound `COc1ccc(CN2C(=O)C(C)Oc3cc(C(=O)NO)ccc32)cc1` (stereo not drawn) [Compound I-91, N-hydroxy-4-(4-methoxybenzyl)-2-methyl-3-oxo-3,4-dihydro-2H-benzo[b][1,4]oxazine-7-carboxamide], the IC50 fell in the range of 0.1 to 1 µM.

For the compound `CC1Oc2cc(C(=O)NO)ccc2N(Cc2ccc(S(C)(=O)=O)cc2)C1=O` (stereo not drawn) [Compound I-92, N-hydroxy-2-methyl-4-(4-(methylsulfonyl)benzyl)-3-oxo-3,4-dihydro-2H-benzo[b][1,4]oxazine-7-carboxamide], the IC50 lay in the range of 0.1 to 1 µM.

Turning to `CS(=O)(=O)c1ccc(CN2C(=O)COc3ccc(C(=O)NO)cc32)c(Cl)c1` [Compound I-93, 4-(2-chloro-4-(methylsulfonyl)benzyl)-N-hydroxy-3-oxo-3,4-dihydro-2H-benzo[b][1,4]oxazine-6-carboxamide], the IC50 was under 0.025 µM.

As for `CC(c1ccccc1F)N1C(=O)COc2ccc(C(=O)NO)cc21` (stereo not drawn) [Compound I-95, 4-(1-(2-fluorophenyl)ethyl)-N-hydroxy-3-oxo-3,4-dihydro-2H-benzo[b][1,4]oxazine-6-carboxamide], the IC50 was in the range of 0.025 to 0.1 µM.

With `O=C(NO)c1ccc2c(c1)N(C(=O)N1CCCCC1)CCO2` [Compound I-97, N-hydroxy-4-(piperidine-1-carbonyl)-3,4-dihydro-2H-benzo[b][1,4]oxazine-6-carboxamide], the IC50 is over 1 µM.

For `COc1ccc(CN2C(=O)C(CCN(C)C)Oc3ccc(C(=O)NO)cc32)cc1` (stereo not drawn) [Compound I-105, 2-(2-(dimethylamino)ethyl)-N-hydroxy-4-(4-methoxybenzyl)-3-oxo-3,4-dihydro-2H-benzo[b][1,4]oxazine-6-carboxamide], the IC50 fell in the range of 0.025 to 0.1 µM.

Consider `O=C(NO)c1ccc2c(c1)N(c1nc3ccccc3[nH]1)CCC2` [Compound I-106, 1-(1H-benzo[d]imidazol-2-yl)-N-hydroxy-1,2,3,4-tetrahydroquinoline-7-carboxamide], for which the IC50 lay within 0.1 to 1 µM.

As to `O=C(NO)c1ccc2c(c1)CCCN2c1nc2ccccc2[nH]1` [Compound I-107, 1-(1H-benzo[d]imidazol-2-yl)-N-hydroxy-1,2,3,4-tetrahydroquinoline-6-carboxamide], the IC50 was over 1 µM.

Regarding `O=C(NO)c1ccc2c(c1)N(c1nc3ccccc3[nH]1)CCO2` [Compound I-108, 4-(1H-benzo[d]imidazol-2-yl)-N-hydroxy-3,4-dihydro-2H-benzo[b][1,4]oxazine-6-carboxamide], the IC50 is over 1 µM.

Turning to `O=C(NO)c1ccc2c(c1)OCCN2c1nc2ccccc2[nH]1` [Compound I-109, 4-(1H-benzo[d]imidazol-2-yl)-N-hydroxy-3,4-dihydro-2H-benzo[b][1,4]oxazine-7-carboxamide], the IC50 is over 1 µM.

Regarding `COCCn1c(N2CCCc3ccc(C(=O)NO)cc32)nc2ccccc21` [Compound I-110, N-hydroxy-1-(1-(2-methoxyethyl)-1H-benzo[d]imidazol-2-yl)-1,2,3,4-tetrahydroquinoline-7-carboxamide], the half-maximal inhibitory concentration (IC50) is 0.1 to 1 µM.

`COCCn1c(N2CCCc3cc(C(=O)NO)ccc32)nc2ccccc21` [Compound I-111, N-hydroxy-1-(1-(2-methoxyethyl)-1H-benzo[d]imidazol-2-yl)-1,2,3,4-tetrahydroquinoline-6-carboxamide]: the IC50 fell in the range of 0.1 to 1 µM.

As for `COc1ccc(C(=O)N2CCCc3ccc(C(=O)NO)cc32)cc1` [Compound I-112, N-hydroxy-1-(4-methoxybenzoyl)-1,2,3,4-tetrahydroquinoline-7-carboxamide], the IC50 was in the range of 0.1 to 1 µM.

On to `COc1ccc(C(=O)N2CCOc3ccc(C(=O)NO)cc32)cc1` [Compound I-113, N-hydroxy-4-(4-methoxybenzoyl)-3,4-dihydro-2H-benzo[b][1,4]oxazine-6-carboxamide], for which the IC50 was over 1 µM.
